Tests used:
[1] = tested on: panel of 106 targets, including receptors, enzymes, ion channels, and transporters; assay: Selectivity panel (Eurofins Panlabs), overall; conditions: 10 μmol/L
Source text: (§1) The selectivity of T‐495 at 10 μmol/L against a panel of 106 targets, including receptors, enzymes, ion channels, and transporters, was characterized (Eurofins Panlabs Taiwan Ltd., Taipei, Taiwan).

Adenosine A2B = target: T1, Adenosine A2B (Homo sapiens, UniProt P29275); assay: Selectivity panel; type: binding
T1 construct: purchased Eurofins Panlabs Taiwan Ltd
Source text: as §1

[2] = tested on: Adrenergic α1, non-selective; assay: Selectivity panel; type: binding
Source text: as §1

Muscarinic M3 = target: T2, Muscarinic M3 (Homo sapiens, UniProt P20309); assay: Selectivity panel; type: binding
T2 construct: purchased Eurofins Panlabs Taiwan Ltd
T2 sequence (P20309 whole entry): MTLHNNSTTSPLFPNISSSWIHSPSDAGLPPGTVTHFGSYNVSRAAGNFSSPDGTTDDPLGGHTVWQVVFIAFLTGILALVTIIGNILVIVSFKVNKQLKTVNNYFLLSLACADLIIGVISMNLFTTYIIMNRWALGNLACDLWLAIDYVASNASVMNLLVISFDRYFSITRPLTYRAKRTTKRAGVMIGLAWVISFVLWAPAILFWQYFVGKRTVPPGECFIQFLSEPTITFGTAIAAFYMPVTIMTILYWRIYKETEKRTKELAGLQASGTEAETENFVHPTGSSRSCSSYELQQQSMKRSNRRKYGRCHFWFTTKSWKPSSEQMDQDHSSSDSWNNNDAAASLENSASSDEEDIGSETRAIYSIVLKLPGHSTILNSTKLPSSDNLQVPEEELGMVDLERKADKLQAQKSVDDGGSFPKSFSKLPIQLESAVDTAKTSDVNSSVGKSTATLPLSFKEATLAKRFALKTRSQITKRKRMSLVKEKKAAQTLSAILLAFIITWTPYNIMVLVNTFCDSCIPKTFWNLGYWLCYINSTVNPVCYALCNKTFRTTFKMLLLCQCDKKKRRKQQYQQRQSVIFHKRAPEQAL
Source text: as §1

[3] = target: T3, Cholecystokinin CCK2 (CCKB) (Homo sapiens, UniProt P32239); assay: Selectivity panel; type: binding
T3 construct: purchased Eurofins Panlabs Taiwan Ltd
Source text: as §1

Serotonin 5-HT3 = target: T4, Serotonin 5-HT3 (Homo sapiens, UniProt P46098); assay: Selectivity panel; type: binding
T4 construct: purchased Eurofins Panlabs Taiwan Ltd
T4 sequence (P46098 24-478): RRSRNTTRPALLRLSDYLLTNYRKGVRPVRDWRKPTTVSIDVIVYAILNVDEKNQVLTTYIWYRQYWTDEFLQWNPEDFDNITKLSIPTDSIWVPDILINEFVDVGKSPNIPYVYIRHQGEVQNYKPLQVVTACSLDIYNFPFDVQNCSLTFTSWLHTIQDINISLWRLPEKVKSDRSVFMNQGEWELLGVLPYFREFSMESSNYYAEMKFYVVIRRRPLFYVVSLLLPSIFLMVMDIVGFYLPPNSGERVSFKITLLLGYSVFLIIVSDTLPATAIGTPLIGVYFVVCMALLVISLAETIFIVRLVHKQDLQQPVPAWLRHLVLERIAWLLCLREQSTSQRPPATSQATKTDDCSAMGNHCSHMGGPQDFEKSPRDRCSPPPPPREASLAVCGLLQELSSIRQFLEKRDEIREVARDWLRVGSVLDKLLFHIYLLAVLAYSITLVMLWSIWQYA
Source text: as §1

Adrenergic β2 = target: T5, Adrenergic β2 (Homo sapiens, UniProt P07550); assay: Selectivity panel; type: binding
T5 construct: purchased Eurofins Panlabs Taiwan Ltd
T5 sequence (P07550 whole entry): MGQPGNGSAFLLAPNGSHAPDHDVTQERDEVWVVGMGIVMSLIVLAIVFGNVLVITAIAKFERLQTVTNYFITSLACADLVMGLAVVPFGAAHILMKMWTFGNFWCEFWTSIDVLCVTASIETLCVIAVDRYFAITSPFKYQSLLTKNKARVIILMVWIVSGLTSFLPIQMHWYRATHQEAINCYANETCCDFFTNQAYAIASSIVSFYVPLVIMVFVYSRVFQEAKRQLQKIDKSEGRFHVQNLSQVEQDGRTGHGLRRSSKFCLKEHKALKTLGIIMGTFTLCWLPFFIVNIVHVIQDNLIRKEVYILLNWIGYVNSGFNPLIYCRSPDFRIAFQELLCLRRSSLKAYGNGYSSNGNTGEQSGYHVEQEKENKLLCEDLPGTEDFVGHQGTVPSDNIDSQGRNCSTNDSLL
Source text: as §1

[4] = tested on: Calcium channel L-type, phenylalkylamine; assay: Selectivity panel; type: binding
Source text: as §1

Bradykinin B2 = target: T6, Bradykinin B2 (Homo sapiens, UniProt P30411); assay: Selectivity panel; type: binding
T6 construct: purchased Eurofins Panlabs Taiwan Ltd
Source text: as §1

Adrenergic β3 = target: T7, Adrenergic β3 (Homo sapiens, UniProt P13945); assay: Selectivity panel; type: binding
T7 construct: purchased Eurofins Panlabs Taiwan Ltd
Source text: as §1

[5] = tested on: Estrogen Receptor (non-selective); assay: Selectivity panel; type: binding
Source text: as §1

[6] = target: T8, Nitric oxide synthase, neuronal (nNOS) (Rattus norvegicus, UniProt P29476); assay: Selectivity panel; type: biochemical
T8 construct: purchased Eurofins Panlabs Taiwan Ltd
Source text: as §1

[7] = target: T9, Matrix metalloproteinase-1 (MMP-1) (Homo sapiens, UniProt P03956); assay: Selectivity panel; type: biochemical
T9 construct: purchased Eurofins Panlabs Taiwan Ltd
Source text: as §1

Cyclooxygenase-2 (COX-2) = target: T10, Cyclooxygenase-2 (COX-2) (Homo sapiens, UniProt P35354); assay: Selectivity panel; type: biochemical
T10 construct: purchased Eurofins Panlabs Taiwan Ltd
T10 sequence (P35354 18-604): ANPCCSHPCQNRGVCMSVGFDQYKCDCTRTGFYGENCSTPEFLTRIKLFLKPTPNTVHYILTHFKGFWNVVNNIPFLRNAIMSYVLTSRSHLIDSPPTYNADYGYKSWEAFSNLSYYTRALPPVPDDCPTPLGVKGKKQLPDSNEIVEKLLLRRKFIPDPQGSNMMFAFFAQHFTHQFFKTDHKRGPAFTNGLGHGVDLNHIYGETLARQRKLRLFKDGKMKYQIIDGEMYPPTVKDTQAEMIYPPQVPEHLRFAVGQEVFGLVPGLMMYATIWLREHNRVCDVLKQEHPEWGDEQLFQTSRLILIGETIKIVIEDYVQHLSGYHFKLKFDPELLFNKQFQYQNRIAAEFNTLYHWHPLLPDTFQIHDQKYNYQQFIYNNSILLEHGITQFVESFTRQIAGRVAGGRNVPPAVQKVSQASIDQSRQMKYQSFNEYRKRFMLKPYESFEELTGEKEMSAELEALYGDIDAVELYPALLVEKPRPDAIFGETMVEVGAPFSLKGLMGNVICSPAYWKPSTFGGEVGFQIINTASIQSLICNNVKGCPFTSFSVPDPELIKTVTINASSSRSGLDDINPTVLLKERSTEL
Source text: as §1

[8] = tested on: Protein kinase C (PKC), non-selective; assay: Selectivity panel; type: biochemical
Source text: as §1

Steroid 5α-reductase = assay: Selectivity panel; type: biochemical
Source text: as §1

[9] = target: T11, Choline esterase, acetyl, ACES (Homo sapiens, UniProt P22303); assay: Selectivity panel; type: biochemical
T11 construct: purchased Eurofins Panlabs Taiwan Ltd
T11 sequence (P22303 32-614): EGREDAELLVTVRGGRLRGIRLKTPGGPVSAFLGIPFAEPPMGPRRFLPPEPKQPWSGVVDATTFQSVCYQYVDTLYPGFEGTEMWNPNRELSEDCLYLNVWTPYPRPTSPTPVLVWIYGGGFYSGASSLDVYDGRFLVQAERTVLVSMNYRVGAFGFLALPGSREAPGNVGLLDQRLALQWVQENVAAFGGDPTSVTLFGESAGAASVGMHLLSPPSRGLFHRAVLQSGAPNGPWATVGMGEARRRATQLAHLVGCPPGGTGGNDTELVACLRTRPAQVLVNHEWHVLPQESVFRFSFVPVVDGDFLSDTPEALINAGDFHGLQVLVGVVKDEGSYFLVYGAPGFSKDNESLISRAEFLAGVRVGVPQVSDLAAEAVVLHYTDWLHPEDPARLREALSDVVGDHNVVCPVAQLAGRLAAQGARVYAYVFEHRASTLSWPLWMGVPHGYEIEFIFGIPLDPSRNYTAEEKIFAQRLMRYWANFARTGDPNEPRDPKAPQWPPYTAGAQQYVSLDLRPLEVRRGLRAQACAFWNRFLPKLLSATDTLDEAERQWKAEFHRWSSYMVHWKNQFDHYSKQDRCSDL
Source text: as §1

Protein kinase A (PKA) = assay: Selectivity panel; type: biochemical
Source text: as §1

[10] = target: T12, Phosphodiesterase PDE10A2 (Homo sapiens, UniProt Q9Y233); assay: Selectivity panel; type: biochemical
T12 construct: purchased Eurofins Panlabs Taiwan Ltd
Source text: as §1

Phosphodiesterase PDE4D2 = target: T13, Phosphodiesterase PDE4D2 (Homo sapiens, UniProt Q08499); assay: Selectivity panel; type: biochemical
T13 construct: purchased Eurofins Panlabs Taiwan Ltd
Source text: as §1

[11] = target: T14, Monoamine oxidase B (MAO-B) (Homo sapiens, UniProt P27338); assay: Selectivity panel; type: biochemical
T14 construct: purchased Eurofins Panlabs Taiwan Ltd
T14 sequence (P27338 whole entry): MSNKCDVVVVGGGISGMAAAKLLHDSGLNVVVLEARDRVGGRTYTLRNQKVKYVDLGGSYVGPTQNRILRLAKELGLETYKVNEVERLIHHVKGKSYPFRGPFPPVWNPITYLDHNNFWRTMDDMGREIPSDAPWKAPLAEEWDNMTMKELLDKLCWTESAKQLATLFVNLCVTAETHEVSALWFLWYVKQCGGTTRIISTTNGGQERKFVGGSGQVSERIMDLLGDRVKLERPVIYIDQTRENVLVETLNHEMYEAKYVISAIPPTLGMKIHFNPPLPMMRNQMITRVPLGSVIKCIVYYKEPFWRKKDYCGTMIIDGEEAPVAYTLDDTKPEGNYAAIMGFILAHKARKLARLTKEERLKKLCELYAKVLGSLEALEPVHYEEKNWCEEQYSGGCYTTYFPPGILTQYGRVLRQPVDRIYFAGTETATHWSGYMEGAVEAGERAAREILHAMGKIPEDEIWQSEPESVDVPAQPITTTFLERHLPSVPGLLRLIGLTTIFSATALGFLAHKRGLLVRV
Source text: as §1

[12] = tested on: ATPase, Ca2+, Skeletal Muscle; assay: Selectivity panel; type: biochemical
Source text: as §1

[13] = target: T15, Protein tyrosine kinase, EGF receptor (Homo sapiens, UniProt P00533); assay: Selectivity panel; type: biochemical
T15 construct: purchased Eurofins Panlabs Taiwan Ltd
T15 sequence (P00533 25-1210): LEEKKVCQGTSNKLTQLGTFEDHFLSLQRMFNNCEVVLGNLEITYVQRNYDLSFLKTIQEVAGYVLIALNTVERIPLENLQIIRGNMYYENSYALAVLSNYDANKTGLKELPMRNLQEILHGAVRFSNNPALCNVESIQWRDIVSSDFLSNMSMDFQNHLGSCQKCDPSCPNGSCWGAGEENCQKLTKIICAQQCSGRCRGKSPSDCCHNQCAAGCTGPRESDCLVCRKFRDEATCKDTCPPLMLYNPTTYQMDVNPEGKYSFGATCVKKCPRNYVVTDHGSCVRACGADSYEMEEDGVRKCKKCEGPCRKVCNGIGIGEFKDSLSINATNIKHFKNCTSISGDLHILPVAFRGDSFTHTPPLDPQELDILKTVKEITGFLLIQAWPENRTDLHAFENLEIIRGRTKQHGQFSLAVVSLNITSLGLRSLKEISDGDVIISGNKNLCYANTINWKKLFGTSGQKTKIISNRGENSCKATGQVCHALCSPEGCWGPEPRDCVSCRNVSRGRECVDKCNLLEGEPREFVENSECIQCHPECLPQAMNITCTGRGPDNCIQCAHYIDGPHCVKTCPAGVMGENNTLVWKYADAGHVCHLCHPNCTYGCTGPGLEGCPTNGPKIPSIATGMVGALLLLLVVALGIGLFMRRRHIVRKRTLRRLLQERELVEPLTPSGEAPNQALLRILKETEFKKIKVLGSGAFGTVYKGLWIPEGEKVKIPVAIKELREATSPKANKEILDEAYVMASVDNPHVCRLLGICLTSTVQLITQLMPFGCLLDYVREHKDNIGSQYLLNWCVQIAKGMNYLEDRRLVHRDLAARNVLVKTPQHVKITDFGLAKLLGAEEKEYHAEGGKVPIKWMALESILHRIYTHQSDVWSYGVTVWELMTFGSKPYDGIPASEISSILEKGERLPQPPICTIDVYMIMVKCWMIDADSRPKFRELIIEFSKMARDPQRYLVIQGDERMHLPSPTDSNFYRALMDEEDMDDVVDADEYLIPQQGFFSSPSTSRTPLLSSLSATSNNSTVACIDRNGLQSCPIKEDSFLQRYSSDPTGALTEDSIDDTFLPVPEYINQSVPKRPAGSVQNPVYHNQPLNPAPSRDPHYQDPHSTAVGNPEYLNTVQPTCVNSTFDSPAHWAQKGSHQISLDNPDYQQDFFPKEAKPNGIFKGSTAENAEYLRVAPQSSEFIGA
Source text: as §1

[14] = tested on: Catechol-O-Methyl Transferase (COMT); assay: Selectivity panel; type: biochemical
Source text: as §1

[15] = target: T16, Matrix metalloproteinase-7 (MMP-7) (Homo sapiens, UniProt P09237); assay: Selectivity panel; type: biochemical
T16 construct: purchased Eurofins Panlabs Taiwan Ltd
T16 sequence (P09237 95-267): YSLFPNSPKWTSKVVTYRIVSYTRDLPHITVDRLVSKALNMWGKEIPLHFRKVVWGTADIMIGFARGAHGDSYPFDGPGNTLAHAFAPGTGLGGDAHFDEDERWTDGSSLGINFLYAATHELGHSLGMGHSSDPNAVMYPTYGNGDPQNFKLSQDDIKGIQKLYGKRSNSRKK
Source text: as §1

Lipoxygenase (5-LO) = target: T17, Lipoxygenase (5-LO) (Homo sapiens, UniProt P09917); assay: Selectivity panel; type: biochemical
T17 construct: purchased Eurofins Panlabs Taiwan Ltd
Source text: as §1

Phosphodiesterase PDE5 = target: T18, Phosphodiesterase PDE5 (Homo sapiens, UniProt O76074); assay: Selectivity panel; type: biochemical
T18 construct: purchased Eurofins Panlabs Taiwan Ltd
Source text: as §1

[16] = target: T19, Monoamine oxidase A (MAO-A) (Homo sapiens, UniProt P21397); assay: Selectivity panel; type: biochemical
T19 construct: purchased Eurofins Panlabs Taiwan Ltd
Source text: as §1

[17] = target: T20, Nitric oxide synthase, inducible (iNOS) (Mus musculus, UniProt P29477); assay: Selectivity panel; type: biochemical
T20 construct: purchased Eurofins Panlabs Taiwan Ltd
Source text: as §1

Phosphodiesterase PDE6 = target: T21, Phosphodiesterase PDE6 (Bos taurus, UniProt P11541+P23439); assay: Selectivity panel; type: biochemical
T21 construct: purchased Eurofins Panlabs Taiwan Ltd
Source text: as §1

Phosphodiesterase PDE4 = assay: Selectivity panel; type: biochemical
Source text: as §1

Phosphodiesterase PDE3 = assay: Selectivity panel; type: biochemical
Source text: as §1

Carbonic anhydrase II = target: T22, Carbonic anhydrase II (Homo sapiens, UniProt P00918); assay: Selectivity panel; type: biochemical
T22 construct: purchased Eurofins Panlabs Taiwan Ltd
Source text: as §1

Xanthine oxidase = target: T23, Xanthine oxidase (Bos taurus, UniProt P80457); assay: Selectivity panel; type: biochemical
T23 construct: purchased Eurofins Panlabs Taiwan Ltd
Source text: as §1

[18] = target: T24, Metalloproteinase, Neutral Endopeptidase (Homo sapiens, UniProt P08473); assay: Selectivity panel; type: biochemical
T24 construct: purchased Eurofins Panlabs Taiwan Ltd
Source text: as §1

Peptidase, factor Xa = target: T25, Peptidase, factor Xa (Homo sapiens, UniProt P00742); assay: Selectivity panel; type: biochemical
T25 construct: purchased Eurofins Panlabs Taiwan Ltd
T25 sequence (P00742 235-488 limits assumed): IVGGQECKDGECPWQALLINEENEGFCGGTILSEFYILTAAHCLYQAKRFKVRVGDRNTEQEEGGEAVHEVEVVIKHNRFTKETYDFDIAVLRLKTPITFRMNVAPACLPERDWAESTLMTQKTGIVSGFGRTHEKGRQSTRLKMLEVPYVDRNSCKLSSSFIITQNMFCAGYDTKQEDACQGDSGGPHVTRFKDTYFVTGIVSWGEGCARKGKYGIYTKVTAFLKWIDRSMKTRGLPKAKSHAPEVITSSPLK
T25 sequence (P00742 41-179 partner limits assumed): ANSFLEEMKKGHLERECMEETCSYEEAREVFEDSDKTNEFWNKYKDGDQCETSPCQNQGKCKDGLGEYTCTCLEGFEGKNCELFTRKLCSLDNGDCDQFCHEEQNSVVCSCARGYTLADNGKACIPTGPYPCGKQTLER
Source text: as §1

ATPase, Na+/K+, Heart = assay: Selectivity panel; type: biochemical
Source text: as §1

## Cc1c(Cc2ccc(Cl)nc2)cc2c(c1Cl)OCN([C@H]1CCC[C@@H]1O)C2=O [T‐495, 8‐chloro‐6‐((6‐chloropyridin‐3‐yl)methyl)‐3‐((1S,2S)‐2‐hydroxycyclopentyl)‐7‐methyl‐2,3‐dihydro‐4H‐1,3‐benzoxazin‐4‐one]
[1]
  significant inhibition or stimulation (≥50%) in panel of 106 targets: No significant inhibition or stimulation (≥50%) was observed, except for two targets
Adenosine A2B
  inhibition at 10 µM: 7%
[2]
  % inhibition at 10 μM: 11%
Muscarinic M3
  inhibition at 10 µM: 20%
[3]
  inhibition at 10 µM: 10%
Serotonin 5-HT3
  inhibition at 10 µM: -3%
Adrenergic β2
  inhibition at 10 µM: 15%
[4]
  % inhibition at 10 μM: 19%
Bradykinin B2
  inhibition at 10 µM: -4%
Adrenergic β3
  inhibition at 10 µM: 7%
[5]
  % inhibition at 10 μM: 5%
[6]
  inhibition at 10 µM: 5%
[7]
  inhibition at 10 µM: 5%
Cyclooxygenase-2 (COX-2)
  inhibition at 10 µM: 31%
[8]
  % inhibition at 10 μM: 0%
Steroid 5α-reductase
  % inhibition at 10 μM: 2%
[9]
  inhibition at 10 µM: -2%
Protein kinase A (PKA)
  % inhibition at 10 μM: -4%
[10]
  inhibition at 10 µM: 5%
Phosphodiesterase PDE4D2
  inhibition at 10 µM: 2%
[11]
  inhibition at 10 µM: 6%
[12]
  % inhibition at 10 μM: 0%
[13]
  inhibition at 10 µM: 9%
[14]
  % inhibition at 10 μM: 2%
[15]
  inhibition at 10 µM: 3%
Lipoxygenase (5-LO)
  inhibition at 10 µM: 15%
Phosphodiesterase PDE5
  inhibition at 10 µM: 48%
[16]
  inhibition at 10 µM: 36%
[17]
  inhibition at 10 µM: 0%
Phosphodiesterase PDE6
  inhibition at 10 µM: 6%
Phosphodiesterase PDE4
  % inhibition at 10 μM: 22%
Phosphodiesterase PDE3
  % inhibition at 10 μM: 2%
Carbonic anhydrase II
  inhibition at 10 µM: -9%
Xanthine oxidase
  inhibition at 10 µM: 7%
[18]
  inhibition at 10 µM: 10%
Peptidase, factor Xa
  inhibition at 10 µM: -2%
ATPase, Na+/K+, Heart
  % inhibition at 10 μM: 4%

From publication PMC6986443, “T‐495, a novel low cooperative M1 receptor positive allosteric modulator, improves memory deficits associated with cholinergic dysfunction and is characterized by low gastrointestinal side effect risk” (Pharmacology Research & Perspectives, 2020)
